This is an account of results in patent publication US4818441A, “Quinine derivatines” (Takeda Chemical Industries, Ltd., priority 1979, dated 1989).

One assay has as its system Rat liver lysosome. Nature of the assay: Lysosomal membrane stabilizing activity (release of β-glucuronidase and acid phosphatase). Type of assay: biochemical. The conditions noted are these: 37° C., 90 minutes. The method, then: (1) Rat liver lysosome was incubated at 37° C. for 90 minutes and the activities of β-glucuronidase and acid phosphatase released from the lysosome due to instabilization of the membrane during that time were assayed and compared with the results obtained in the absence of the test compound. The test compound was added as dissolved in dimethylformamide.

Assay [1] deals with beef heart muscle phosphodiesterase. In words: Phosphodiesterase inhibitory activity. Type of assay: biochemical. The conditions noted are these: 1 mM. An excerpt:
Since lysosomal membrane-stabilizing activity is developed through adenosine-[…]-cyclic monophosphate (c-AMP) of tissue cells, the action of compound (I) on c-AMP phosphodiesterase, the c-AMP decomposing enzyme, was investigated. […] Therefore, it was confirmed, if only from this fact, that the compound according to this invention has a membrane-stabilizing activity.
(2) The rate of decomposition of adenosine-[…]-cyclic phosphate by beef heart muscle phosphodiesterase was compared with the rate found in the absence of the test compound.

Assay [2] concerns ubiquinone-deficient enzyme preparation from beef heart mitochondria (succinate oxidase). Nature of the assay: Electron transport activity (succinate oxidase activity of ubiquinone-deficient enzyme preparation). In kind it is biochemical. The conditions noted are these: level of addition 5 n mole; control 7.1 ± 2.8. As to the method:
Thus, the compound of this invention was added to a ubiquinone-deficient enzyme preparation made from beef heart mitochondria and the electron transport activity was investigated by assaying the succinate oxidase activity.
*The ubiquinonedeficient enzyme preparation was prepared from beef heart
mitochondria in accordance with the method of Lester and Fleischer
(Biochem. Biophys. Acta, 47, 358, 1961). The electron transport activity
was investigated by assaying the succinate oxidase activity.
**The composition of the reaction system (2 ml) was as follows. 0.2 M
sucrose, 10 mM TrisHCl (pH 7.4), 20 mM KCl, 3 mM MgCl2, […]
2Na, enzyme protein 1.99 mg, 50 μM potassium succinate, cytochrome C
0.2 mg. 1% Nikkol OP10 (produced by Nikko Chemicals Co. Ltd.) 5 μl
(control group) or 5 μl of a 1 mM solution of the test compound in 1%
Nikkol OP10. The oxygen consumption of this solution was measured with an
oxygen electrode device (Gilson Medical Electronics' Inc.).

Assay [3] concerns isolated guinea pig trachea. Nature of the assay: Tracheal muscle relaxant activity. The conditions noted are these: Cavia porcellus, relaxant effect of noradrenaline taken as 100, read-out: Tracheal muscle relaxant action; for Emax at 30 µg/mL: 3 × 10^-5 g/ml; for Emax at 100 µg/mL: 10^-4 g/ml. The method, then: Thus, the isolated guinea pig trachea was cut into a strip in accordance with the method of Kiyomoto et al. [Yamaura Y. ed. "Zensoku (Asthma)", Kodansha, Tokyo, p. 152, 1974 (Japanese language)], set up in a Magnus device and kept at constant contraction with potassium chloride solution five times the concentration of Tyrode solution. Under the above conditions, a solution of the drug in DMF was added and the muscle relaxant effect was recorded on a kymograph.
^(1) With the relaxant effect of noradrenaline being taken as 100.

The subject of assay [4] is rats with spontaneous hypertension (Ta:SHR). Nature of the assay: Blood pressure of Ta:SHR, oral gavage. Type of assay: in vivo, rat. The conditions noted are these: 10 mg/kg/day oral gavage, mean ± standard error. As to the method: (§1) Thus, 21-week rats with spontaneous hypertension (Ta:SHR) were organized into groups of 8 to 10 individuals each, and one of the present compounds, i.e. 6-(6-hydroxy-3-methyl-3-hexenyl)-2,3-dimethoxy-5-methyl-1,4-benzoquinone (formula (I) wherein R:H3 CO, n:O, R2 :H, R1 :(CH2)3 OH, α β:double bond), and, as controls, ubiquinone homologs (ubiquinone-7 and ubiquinone-10) were each administered by oral gavage in doses of 10 mg/kg/day for 2 weeks (except on Sunday) or administered as incorporated in feed at the rate of 6 to 16 mg/kg/day for 4 weeks. Blood pressures were measured every week, and as for the oral gavage administration group, the blood was withdrawn from the abdominal aorta at the end of the administration period while each animal was kept under anesthesia with pentobarbital sodium (30 mg/kg, intraperitoneal). Then, the kidneys, liver, heart and adrenals were enucleated and weighed. At two weeks in the case of the oral gavage administration group (Table 3) or during week-1 through week-4 in the case of the feed incorporation group (Table 4), antihypertensive effects were observed. […] Since it is generally acknowledged that, in the case of ubiquinone homologs, such hypotensive effects are attributable to a depression of the ubiquinone (Q) deficiency in mitochondria, the degree of Q deficiency of heart mitochondria was investigated in 6 cases showing blood pressures over 230 mmHg in the control group and 6 cases showing blood pressures under 212 mmHg in the group dosed with the present compound.

For assay [5] the test system is unchanged. Nature of the assay: Blood pressure of Ta:SHR, incorporated in feed. The note with it: 6-16 mg/kg/day in feed, mean ± standard error. Type of assay: in vivo, rat. As to the method: as §1

For `CC1=C(C)C(=O)C(C/C=C(\C)CO)=C(C)C1=O` [drawing 15 R#1], in the assay on Rat liver lysosome (2 × 10^-4 M), the “% Inhibition on release of acid phosphatase” value is listed as 32% and the “% Inhibition on release of β-Glucuronidase” value was determined as 37%. Besides, the “Action on phosphodiesterase % Inhibition” value in assay [1] is 41%.

In the case of `COC1=C(OC)C(=O)C(CCC(C)CO)=C(C)C1=O` (centres unmarked) [drawing 19 R: H3 CO], in the assay on Rat liver lysosome (2 × 10^-4 M), the “% Inhibition on release of acid phosphatase” value came to 43% and the “% Inhibition on release of β-Glucuronidase” value came to 38%. For the same compound, the “Action on phosphodiesterase % Inhibition” value in assay [1] was determined as 38%.

Turning to `CC1=C(CC(O)C(C)C(=O)O)C(=O)c2ccccc2C1=O` (centres unmarked) [drawing 11 R#3], in the assay on Rat liver lysosome (2 × 10^-4 M), the “% Inhibition on release of acid phosphatase” value amounted to 35% and the “% Inhibition on release of β-Glucuronidase” value was determined as 15%. Besides, the “Action on phosphodiesterase % Inhibition” value in assay [1] is on record as 40%.

For `CC1=C(C/C=C(\C)CO)C(=O)c2ccccc2C1=O` [drawing 15 R#2], in the assay with Rat liver lysosome (2 × 10^-4 M), the “% Inhibition on release of acid phosphatase” value is on record as 39% and the “% Inhibition on release of β-Glucuronidase” value was 37%. Also, in assay [1], the “Action on phosphodiesterase % Inhibition” value turned out to be 55%.

For the compound `CC1=C(C/C=C(\C)C(=O)O)C(=O)c2ccccc2C1=O` [drawing 13 R#3], the “Action on phosphodiesterase % Inhibition” value in assay [1] amounted to 86%.

Regarding `CC1=C(C)C(=O)C(CCC(C)CO)=C(C)C1=O` (centres unmarked) [drawing 19 R: H3 C], in the assay with Rat liver lysosome (2 × 10^-4 M), the “% Inhibition on release of acid phosphatase” value turned out to be 21% and the “% Inhibition on release of β-Glucuronidase” value was determined as 29%. For the same compound, in assay [1], the “Action on phosphodiesterase % Inhibition” value came out at 44%.

Consider `CC(=CCC1=C(C)C(=O)C(C)=C(C)C1=O)CCC=C(C)CCC(C)(C)O` [drawing 20 R#1], for which, in the assay with Rat liver lysosome (2 × 10^-4 M), the “% Inhibition on release of acid phosphatase” value amounted to 16% and the “% Inhibition on release of β-Glucuronidase” value came out at 20%. Besides, the “Action on phosphodiesterase % Inhibition” value in assay [1] is listed as 18%.

On to `COC1=C(OC)C(=O)C(CCC(C)CO)=C(C)C1=O` (centres unmarked) [drawing 25], for which, in assay [2], the “Succinate oxidase activity [oxygen consumption]” value (“Succinate oxidase activity” for short) is 12.5 (n atoms oxygen) min. per mg p.

Take `CC1=C(C/C=C(\C)CCCO)C(=O)c2ccccc2C1=O` [drawing 17 R#3]: in the assay with Rat liver lysosome (2 × 10^-5 M), the “% Inhibition on release of acid phosphatase” value is reported as 36% and the “% Inhibition on release of β-Glucuronidase” value amounted to 25%.

Turning to `COC1=C(OC)C(=O)C(C/C=C(\C)CC/C=C(\C)CC/C=C(\C)CO)=C(C)C1=O`, the “Succinate oxidase activity” value in assay [2] was 42.4 ± 6.3 (n atoms oxygen) min. per mg p.

For `COC1=C(OC)C(=O)C(CC(O)C(C)C(=O)O)=C(C)C1=O` (centres unmarked) [drawing 11 R#1], in the assay with Rat liver lysosome (2 × 10^-4 M), the “% Inhibition on release of acid phosphatase” value is listed as 49% and the “% Inhibition on release of β-Glucuronidase” value worked out at 18%. In addition, in assay [1], the “Action on phosphodiesterase % Inhibition” value worked out at 60%.

In the case of `CC1=C(C)C(=O)C(C/C=C(\C)CCCO)=C(C)C1=O` [drawing 17 R#2], in the assay on Rat liver lysosome (2 × 10^-5 M), the “% Inhibition on release of acid phosphatase” value is reported as 34% and the “% Inhibition on release of β-Glucuronidase” value turned out to be 23%. Also, the “Action on phosphodiesterase % Inhibition” value in assay [1] is 53%.

As to `CC1=C(C)C(=O)C(CC(O)C(C)C(=O)O)=C(C)C1=O` (centres unmarked) [drawing 11 R#2], in the assay with Rat liver lysosome (2 × 10^-4 M), the “% Inhibition on release of acid phosphatase” value is 48% and the “% Inhibition on release of β-Glucuronidase” value was found to be 29%. For the same compound, in assay [1], the “Action on phosphodiesterase % Inhibition” value is on record as 20%.

As to `CC1=C(C)C(=O)C(C/C=C(\C)CCCO)=C(C)C1=O` [drawing 28 R: H3 C], in assay [3], the Emax at 30 µg/mL was 67% and the Emax at 100 µg/mL is 100%.

For `CC1=C(C)C(=O)C(C/C=C(\C)C(=O)O)=C(C)C1=O` [drawing 13 R#2], in the assay on Rat liver lysosome (2 × 10^-4 M), the “% Inhibition on release of acid phosphatase” value was determined as 40% and the “% Inhibition on release of β-Glucuronidase” value stood at 36%. In assay [1], the “Action on phosphodiesterase % Inhibition” value is 42%.

On to `COC1=C(OC)C(=O)C(C/C=C(\C)CCCO)=C(C)C1=O` [drawing 28 R: H3 CO], for which, in assay [3], the Emax at 30 µg/mL was 85.5% and the Emax at 100 µg/mL came out at 100%.

Consider `Cn1c(=O)c2[nH]cnc2n(C)c1=O` [theophylline, reference compound], for which the “Action on phosphodiesterase % Inhibition” value in assay [1] came out at 32%. Also, in assay [3], the Emax at 30 µg/mL worked out at 60.4% and the Emax at 100 µg/mL worked out at 93%.

As for `COC1=C(OC)C(=O)C(C/C=C(\C)CC/C=C(\C)CC/C=C(\C)CC/C=C(\C)CC/C=C(\C)CC/C=C(\C)CCC=C(C)C)=C(C)C1=O` [Ubiquinone-7, ubiquinone-7, reference compound], the values for the Blood pressure in assay [4] (week 0), in assay [4] (week 1) and in assay [4] (week 2) were 199 ± 9 mmHg, 204 ± 9 mmHg and 206 ± 11 mmHg, respectively.

Regarding `COC1=C(OC)C(=O)C(C/C=C(\C)CC/C=C(\C)CO)=C(C)C1=O`, the “Succinate oxidase activity” value in assay [2] is reported as 35.5 ± 3.5 (n atoms oxygen) min. per mg p.

For `COC1=C(OC)C(=O)C(C/C=C(\C)CCCO)=C(C)C1=O` [drawing 24], the “Succinate oxidase activity” value in assay [2] is listed as 18.2 (n atoms oxygen) min. per mg p.

In the case of `COC1=C(OC)C(=O)C(C/C=C(\C)C(=O)O)=C(C)C1=O` [drawing 13 R#1], in the assay on Rat liver lysosome (2 × 10^-4 M), the “% Inhibition on release of acid phosphatase” value is reported as 44% and the “% Inhibition on release of β-Glucuronidase” value was 36%. Also, the “Action on phosphodiesterase % Inhibition” value in assay [1] stood at 47%.

Turning to `COC1=C(OC)C(=O)C(C/C=C(\C)CC/C=C(\C)CC/C=C(\C)CC/C=C(\C)CC/C=C(\C)CC/C=C(\C)CC/C=C(\C)CC/C=C(\C)CC/C=C(\C)CCC=C(C)C)=C(C)C1=O` [Ubiquinone-10, ubiquinone-10], the Blood pressure in assay [5] (week 0) turned out to be 206 ± 16 mmHg; in assay [5] (week 1) it was 191 ± 14 mmHg; in assay [5] (week 2) it was 187 ± 10 mmHg; in assay [5] (week 3), 199 ± 17 mmHg; in assay [5] (week 4), 205 ± 13 mmHg.

Take `COC1=C(OC)C(=O)C(CC=C(C)CCCC(C)(C)O)=C(C)C1=O`: the “Succinate oxidase activity” value in assay [2] is recorded as 21.4 (n atoms oxygen) min. per mg p.

For `COC1=C(OC)C(=O)C(C/C=C(\C)CCCO)=C(C)C1=O` [drawing 17 R#1], in the assay with Rat liver lysosome (2 × 10^-4 M), the “% Inhibition on release of acid phosphatase” value is 37% and the “% Inhibition on release of β-Glucuronidase” value came out at 28%. Besides, in assay [1], the “Action on phosphodiesterase % Inhibition” value was determined as 84%.

As for `CC(=CCC1=C(C)C(=O)c2ccccc2C1=O)CCC=C(C)CCC(C)(C)O` [drawing 20 R#2], in the assay with Rat liver lysosome (2 × 10^-5 M), the “% Inhibition on release of acid phosphatase” value is 9% and the “% Inhibition on release of β-Glucuronidase” value came out at 18%. In addition, the “Action on phosphodiesterase % Inhibition” value in assay [1] is given as 29%.
